In patent EP2532368A1, “"Composition for oral delivery of biologically-active substances"” (Peluso, Gianfranco, priority 2011, dated 2012):

Test system: DSS-induced colitis
Experiment: DSS-induced colitis in mice
Type: in vivo, C57BL/6 mice
Settings: 3% DSS in water, daily gavage for 7 days

Nc1ccc(O)c(C(=O)O)c1 [5-ASA, 5-Aminosalicylic acid]
weight loss: does not reduce the severity of weight loss
Intestinal myeloperoxidase (MPO) activity (colon): has no effect on the basal MPO levels
